Data as given in ChEMBL document CHEMBL1201862, “PubChem BioAssay data set” (2004).
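Method: 48-hour compound exposure of cells in 96-well plates, five concentrations, linear interpolation of endpoints. GI50: concentration for 50% inhibition of growth.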 Active and inactive are the calls of the source. No stated cut-off is given here; in the data, active = GI50 up to about 1.1 µM and inactive = higher.

Assays:
Assay in all cases: DTP human tumour cell line panel, 48 h
HCT-15 = test system: HCT-15
SK-MEL-2 = test system: SK-MEL-2
DLD-1 = test system: DLD-1
HOP-62 = test system: HOP-62
NCI-H226 = test system: NCI-H226
UACC-257 = test system: UACC-257
NCI-H460 = test system: NCI-H460
HCT-116 = test system: HCT-116
OVCAR-5 = test system: OVCAR-5
OVCAR-3 = test system: OVCAR-3
SK-MEL-28 = test system: SK-MEL-28
SNB-19 = test system: SNB-19
786-0 = test system: 786-0
K562 = test system: K562
MCF7 = test system: MCF7
A498 = test system: A498
MDA-N = test system: MDA-N
MDA-MB-435 = test system: MDA-MB-435
IGROV-1 = test system: IGROV-1
NCI/ADR-RES = test system: NCI/ADR-RES

| SMILES | GI50 (HCT-15) [µM] | GI50 (SK-MEL-2) | GI50 (DLD-1) | GI50 (HOP-62) | GI50 (NCI-H226) | GI50 (UACC-257) | GI50 (NCI-H460) | GI50 (HCT-116) | GI50 (OVCAR-5) | GI50 (OVCAR-3) | GI50 (SK-MEL-28) | GI50 (SNB-19) | GI50 (786-0) | GI50 (K562) | GI50 (MCF7) | GI50 (A498) | GI50 (MDA-N) | GI50 (MDA-MB-435) | GI50 (IGROV-1) | GI50 (NCI/ADR-RES) |
| --- | --- | --- | --- | --- | --- | --- | --- | --- | --- | --- | --- | --- | --- | --- | --- | --- | --- | --- | --- | --- |
| COc1cc(/C=C2\Cc3ccccc3C2=O)cc(OC)c1OC | > 100 | > 100 µM (inactive) | > 100 µM (inactive) | > 100 µM (inactive) | > 100 µM (inactive) | > 100 µM (inactive) | > 100 µM (inactive) | > 100 µM (inactive) | > 100 µM (inactive) | > 100 µM (inactive) | > 100 µM (inactive) | > 100 µM (inactive) | > 100 µM (inactive) | > 100 µM (inactive) | – | – | – | – | – | – |
| O=C1CC(c2cccc(Cl)c2)Nc2ccc(N3CCCC3)cc21 (stereo not drawn) | 0.203 | 0.0546 µM (active) | – | 0.419 µM (active) | 0.0721 µM (active) | 0.0687 µM (active) | 0.0506 µM (active) | 0.0385 µM (active) | 0.526 µM (active) | 0.158 µM (active) | 0.189 µM (active) | 0.0332 µM (active) | 0.0577 µM (active) | 0.0863 µM (active) | 0.555 µM (active) | 0.01 µM (active) | 0.00359 µM (active) | 0.00484 µM (active) | 0.13 µM (active) | 0.0274 µM (active) |
| NC(Cc1ccccc1)c1nn[nH]n1 (stereo not drawn) | > 100 | > 100 µM (inactive) | – | > 100 µM (inactive) | > 100 µM (inactive) | > 100 µM (inactive) | > 100 µM (inactive) | > 100 µM (inactive) | > 100 µM (inactive) | > 100 µM (inactive) | > 100 µM (inactive) | > 100 µM (inactive) | > 100 µM (inactive) | 0.0476 µM (active) | > 100 µM (inactive) | > 100 µM (inactive) | > 100 µM (inactive) | > 100 µM (inactive) | > 100 µM (inactive) | > 100 µM (inactive) |
| Cc1ccc2oc(=O)cc(CC(=O)O)c2c1 | > 100 | > 100 µM (inactive) | > 100 µM (inactive) | > 100 µM (inactive) | > 100 µM (inactive) | – | > 100 µM (inactive) | > 100 µM (inactive) | > 100 µM (inactive) | > 100 µM (inactive) | > 100 µM (inactive) | > 100 µM (inactive) | > 100 µM (inactive) | > 100 µM (inactive) | – | > 100 µM (inactive) | – | – | > 100 µM (inactive) | – |
| CCOP(=O)(OCC)C(C#N)Cc1ccco1 (stereo not drawn) | > 10 | > 10 µM (inactive) | – | > 10 µM (inactive) | > 10 µM (inactive) | > 10 µM (inactive) | > 10 µM (inactive) | > 10 µM (inactive) | > 10 µM (inactive) | > 10 µM (inactive) | > 10 µM (inactive) | > 10 µM (inactive) | > 10 µM (inactive) | > 10 µM (inactive) | > 10 µM (inactive) | > 10 µM (inactive) | > 10 µM (inactive) | > 10 µM (inactive) | > 10 µM (inactive) | > 10 µM (inactive) |
| CC(C)(C)C1CCN(C(=O)c2ccccc2)CC1 | 57.5 | > 100 µM (inactive) | > 100 µM (inactive) | > 100 µM (inactive) | > 100 µM (inactive) | 41.1 µM (inactive) | > 100 µM (inactive) | 53.8 µM (inactive) | > 100 µM (inactive) | 36.8 µM (inactive) | – | > 100 µM (inactive) | > 100 µM (inactive) | 63.4 µM (inactive) | – | > 100 µM (inactive) | – | – | > 100 µM (inactive) | – |
| CCCCCCCCC1C(C)c2c([nH]c3ccccc23)C2C(=O)N(c3ccccc3)C(=O)C21 (stereo not drawn) | 11.2 | 16 µM (inactive) | 18.9 µM (inactive) | 21 µM (inactive) | 11.8 µM (inactive) | > 10 µM (inactive) | 3.82 µM (inactive) | 3.27 µM (inactive) | 18.3 µM (inactive) | 5.08 µM (inactive) | 16.8 µM (inactive) | – | 13.1 µM (inactive) | 3.9 µM (inactive) | – | 21.1 µM (inactive) | – | – | 17.6 µM (inactive) | – |
| O=c1[nH]c2cc([N+](=O)[O-])ccc2nc1/C(=N\NO)C(O)c1ccc([N+](=O)[O-])cc1 (stereo not drawn) | 35.2 | – | > 100 µM (inactive) | > 100 µM (inactive) | > 100 µM (inactive) | > 100 µM (inactive) | > 100 µM (inactive) | > 100 µM (inactive) | > 100 µM (inactive) | > 100 µM (inactive) | > 100 µM (inactive) | > 100 µM (inactive) | > 100 µM (inactive) | > 100 µM (inactive) | – | – | – | – | > 100 µM (inactive) | – |
| CC12OC3(C)OC(=O)C(c4ccccc4)(O1)C3(C)O2 (stereo not drawn) | > 100 | > 100 µM (inactive) | > 100 µM (inactive) | – | > 100 µM (inactive) | > 100 µM (inactive) | – | > 100 µM (inactive) | > 100 µM (inactive) | > 100 µM (inactive) | > 100 µM (inactive) | > 100 µM (inactive) | > 100 µM (inactive) | > 100 µM (inactive) | – | > 100 µM (inactive) | – | – | > 100 µM (inactive) | – |
| C/C(=N\NS(=O)(=O)c1c(C)cc(C)cc1C)c1ccc[n+]([O-])n1 | 14.7 | – | 7.16 µM (inactive) | > 100 µM (inactive) | – | 10.3 µM (inactive) | 30.7 µM (inactive) | 13.1 µM (inactive) | 26.8 µM (inactive) | 12.6 µM (inactive) | 13.3 µM (inactive) | > 100 µM (inactive) | 14.3 µM (inactive) | 4.44 µM (inactive) | – | 29.5 µM (inactive) | – | – | 31.6 µM (inactive) | – |
| COc1ccc2oc(C(=O)O)c3c2c1CCC3 | > 100 | – | > 100 µM (inactive) | > 100 µM (inactive) | – | > 100 µM (inactive) | > 100 µM (inactive) | > 100 µM (inactive) | – | > 100 µM (inactive) | > 100 µM (inactive) | > 100 µM (inactive) | > 100 µM (inactive) | > 100 µM (inactive) | – | > 100 µM (inactive) | – | – | > 100 µM (inactive) | – |
| O=C(O)CCC1c2[nH]c3ccccc3c2CCN1Cc1ccccc1 (stereo not drawn) | > 100 | > 100 µM (inactive) | > 100 µM (inactive) | – | > 100 µM (inactive) | > 100 µM (inactive) | > 100 µM (inactive) | > 100 µM (inactive) | > 100 µM (inactive) | > 100 µM (inactive) | > 100 µM (inactive) | > 100 µM (inactive) | > 100 µM (inactive) | > 100 µM (inactive) | – | > 100 µM (inactive) | – | – | > 100 µM (inactive) | – |
| O=C1Nc2cc(F)ccc2C1=O | > 100 | > 100 µM (inactive) | > 100 µM (inactive) | > 100 µM (inactive) | > 100 µM (inactive) | > 100 µM (inactive) | > 100 µM (inactive) | – | > 100 µM (inactive) | – | > 100 µM (inactive) | > 100 µM (inactive) | > 100 µM (inactive) | > 100 µM (inactive) | – | > 100 µM (inactive) | – | – | > 100 µM (inactive) | – |
| CC12CCC3(OCCO3)C(OC(=O)c3ccccc3)=C1CCC21OCCO1 (stereo not drawn) | > 100 | – | > 100 µM (inactive) | > 100 µM (inactive) | 4.7 µM (inactive) | > 100 µM (inactive) | > 100 µM (inactive) | > 100 µM (inactive) | > 100 µM (inactive) | > 100 µM (inactive) | > 100 µM (inactive) | > 100 µM (inactive) | > 100 µM (inactive) | – | – | > 100 µM (inactive) | – | – | > 100 µM (inactive) | – |
| O=C1NC(=O)C(=O)C(c2nc3ccccc3s2)C1=O | > 100 | > 100 µM (inactive) | > 100 µM (inactive) | > 100 µM (inactive) | > 100 µM (inactive) | > 100 µM (inactive) | > 100 µM (inactive) | > 100 µM (inactive) | – | > 100 µM (inactive) | > 100 µM (inactive) | > 100 µM (inactive) | > 100 µM (inactive) | – | – | > 100 µM (inactive) | – | – | > 100 µM (inactive) | – |
| CCC(CC)n1cc(C(=O)NC(=O)NCCCCCOC(=O)CCCCCCCCCCC(=O)OCCCCCNC(=O)NC(=O)c2cn(C(CC)CC)c(=O)[nH]c2=O)c(=O)[nH]c1=O | > 100 | – | > 100 µM (inactive) | > 100 µM (inactive) | > 100 µM (inactive) | > 100 µM (inactive) | > 100 µM (inactive) | > 100 µM (inactive) | > 100 µM (inactive) | > 100 µM (inactive) | > 100 µM (inactive) | 27.7 µM (inactive) | 45.8 µM (inactive) | > 100 µM (inactive) | – | > 100 µM (inactive) | – | – | > 100 µM (inactive) | – |
| NC(=O)CCC(Nc1c2ccccc2[n+]([O-])c2ccccc12)C(=O)O (stereo not drawn) | 46.7 | > 100 µM (inactive) | 27.8 µM (inactive) | > 100 µM (inactive) | 64.6 µM (inactive) | – | 80 µM (inactive) | 38.3 µM (inactive) | > 100 µM (inactive) | 60.1 µM (inactive) | 26.4 µM (inactive) | 77.1 µM (inactive) | > 100 µM (inactive) | 37.8 µM (inactive) | – | > 100 µM (inactive) | – | – | > 100 µM (inactive) | – |
| CC(C(=O)c1ccc(Cl)cc1)C1OC(=O)C(Cl)=C1Cl (stereo not drawn) | 21.5 | 23.2 µM (inactive) | 21.6 µM (inactive) | > 100 µM (inactive) | 68.2 µM (inactive) | 35.6 µM (inactive) | > 100 µM (inactive) | – | > 100 µM (inactive) | 28.5 µM (inactive) | 27.3 µM (inactive) | 85.1 µM (inactive) | 21.2 µM (inactive) | 25.2 µM (inactive) | – | 41.5 µM (inactive) | – | – | 29.3 µM (inactive) | – |
